Source: US10239957B2, “Peptide containing conjugates for dual molecular delivery of oligonucleotides” (Merck Sharp & Dohme Corp., priority 2013, dated 2019)
Where no end group is shown, it is not given here. [ ]: non-standard residue; d: D form. TGN = not defined here

System: CTNNB1
Assay: In vitro DMD assay: mRNA silencing enhancement by peptide conjugates after siRNA-IV treatment
Assay type: cell-based
Conditions: primary mouse hepatocytes, siRNA-IV 125 nM baseline
Protocol: Cryopreserved primary Mouse hepatocytes (Bioreclamation, LLC) were placed into Collagen Type I coated 96-well plates at 25,000 cells per well in serum-containing InVitroGRO CP media (Bioreclamation, LLC) and allowed 5 hours to attach. Media was replaced with InVitroGRO HI media and cells were treated with siRNA-IV at 125 nM [siRNA] for 1 hour. Media was replaced with InVitroGRO HI media and cells were treated for approximately 16 hours with experimental Peptide conjugates at various concentrations to establish a dose-response curve. Peptide conjugates were washed out after 16 hours with InVitroGRO HI media and cells allowed to incubate for an additional 24 hours. Cells were then lysed and mRNA expression of the siRNA target was measured by RT-qPCR (Applied Biosystems Taqman reagents). mRNA silencing activity of each Peptide conjugate was expressed as an enhancement above the baseline activity of 125 nM siRNA-IV alone with respect to the untreated cells and all siRNA target Ct values were normalized to PPIB mRNA for each well (dddCt) and summarized.
The structure of TGN-S-S-peptide is shown below and the activity data is listed in Table 5 (siRNA-IV concentration was kept at […]).

Substance	In vitro dddCt (vs. baseline SCE dose) (Targeted peptide dose 8 nM)	In vitro dddCt (vs. baseline SCE dose) (Targeted peptide dose 40 nM)	In vitro dddCt (vs. baseline SCE dose) (Targeted peptide dose 200 nM)	In vitro dddCt (vs. baseline SCE dose) (Targeted peptide dose 1000 nM)	In vitro dddCt (vs. baseline SCE dose) (Targeted peptide dose 5000 nM)
TGN-S-S-SEQ ID NO: 1784 (D) ([dC]G[dW][dF]G[dE][dI][dE][dE][dL][dI][dE][dE]G[dL][dE][dN][dL][dI][dD][dW]G[dN]G; not fully specified (residue 1); also: TGN conjugated via disulfide at Cys1; listed as Homo sapiens)	0.07	−0.22	−0.57	−1.01	−0.81
TGN-S-S-SEQ ID NO: 1785 (D) ([dC]G[dL][dF]G[dE][dL][dE][dE][dL][dI][dE][dE]G[dL][dE][dN][dL][dI][dD][dW]G[dN]G; not fully specified (residue 1); also: TGN conjugated via disulfide at Cys1; listed as Homo sapiens)	−0.1	−0.44	−1.68	0.84	−2.03
TGN-S-S-SEQ ID NO: 1786 (D) ([dC]G[dL][dF]G[dE][dI][dE][dE][dL][dW][dE][dE]G[dL][dE][dN][dL][dI][dD][dW]G[dN]G; not fully specified (residue 1); also: TGN conjugated via disulfide at Cys1; listed as Homo sapiens)	0.17	0.13	0.06	0.06	0.18
TGN-S-S-SEQ ID NO: 1793 (D) ([dC]G[dL][dL]G[dE][dI][dE][dE][dL][dI][dE][dE]G[dL][dE][dN][dL][dI][dD][dW]G[dN]G; not fully specified (residue 1); also: TGN conjugated via disulfide at Cys1; listed as Homo sapiens)	−0.02	−1.04	−2.36	−2.75	−2.65
TGN-S-S-SEQ ID NO: 1794 (D) ([dC]G[dL][dF]G[dA][dI][dE][dE][dL][dI][dE][dE]G[dL][dE][dN][dL][dI][dD][dW]G[dN]G; not fully specified (residue 1); also: TGN conjugated via disulfide at Cys1; listed as Homo sapiens)	−0.09	−0.8	−2.22	−2.71	−2.61
TGN-S-S-SEQ ID NO: 1795 (D) ([dC]G[dF][dF]G[dE][dI][dE][dE][dL][dI][dE][dE]G[dL][dE][dN][dL][dI][dD][dW]G[dN]G; not fully specified (residue 1); also: TGN conjugated via disulfide at Cys1; listed as Homo sapiens)	−0.1	−0.33	−0.71	0.94	−0.71
TGN-S-S-SEQ ID NO: 1796 (D) ([dC]G[dL][dW]G[dE][dI][dE][dE][dL][dI][dE][dE]G[dL][dE][dN][dL][dI][dD][dW]G[dN]G; not fully specified (residue 1); also: TGN conjugated via disulfide at Cys1; listed as Homo sapiens)	0.05	−0.56	−1.13	−1.98	−1.81
TGN-S-S-SEQ ID NO: 1797 (D) ([dC]G[dL][dF]G[dE][dW][dE][dE][dL][dI][dE][dE]G[dL][dE][dN][dL][dI][dD][dW]G[dN]G; not fully specified (residue 1); also: TGN conjugated via disulfide at Cys1; listed as Homo sapiens)	0	0.41	0.08	0.05	0.24
TGN-S-S-SEQ ID NO: 1798 (D) ([dC]G[dL][dF]G[dE][dF][dE][dE][dL][dI][dE][dE]G[dL][dE][dN][dL][dI][dD][dW]G[dN]G; not fully specified (residue 1); also: TGN conjugated via disulfide at Cys1; listed as Homo sapiens)	−0.09	−0.69	−0.13	−0.26	−0.18
TGN-S-S-SSEQ ID NO: 1799(D) ([dC]G[dL][dF]G[dE][dI][dE][dE][dL][dI][dE][dE]G[dL][dE][dN][dL][dL][dD][dW]G[dN]G; not fully specified (residue 1); also: TGN conjugated via disulfide at Cys1; listed as Homo sapiens)	0.03	−0.45	−1.63	−2.13	−2.22
TGN-S-S-Seq-ID-25 (D) ([dC][dI][dF]G[dA][dI][dA]G[dF][dI][dK][dN][dI][dW][dE]G[dL][dI][dD][dA][dF]; not fully specified (residue 1); also: disulfide-linked to TGN peptide via Cys; listed as Homo sapiens)	−0.06	0.2	−0.13	0.01	−1.72
TGN-S-S-Seq-ID-37 (L) (C(TGN)IFGAIAGFIKNIWKGLIDWWYG; reading uncertain; also: disulfide-linked to TGN peptide via Cys; listed as Homo sapiens)	0.02	0.14	−0.01	−0.19	−0.79
TGN-S-S-Seq-ID-54 (L) (C(TGN)FFGAIWEFIRSILEGLIDGWYGYGRKKRRQRR; reading uncertain; also: disulfide-linked to TGN peptide via Cys; listed as Homo sapiens)	0.03	−0.07	−0.16	−0.03	0.07
TGN-S-S-Seq-ID-55 (L) (C(TGN)GLFHALLHLLHSLWHLLLHAWYGYGRKKRRQRR; reading uncertain; also: disulfide-linked to TGN peptide via Cys; listed as Homo sapiens)	0.11	0.08	0.12	0.05	−0.01
TGN-S-S-Seq-ID-56 (L) (C(TGN)GLFHALLHLLHSLWHLLLHAWYGYGHKKHHQHR; reading uncertain; also: disulfide-linked to TGN peptide via Cys; listed as Homo sapiens)	0.02	0.05	−0.12	−0.08	−0.58
TGN-S-S-Seq-ID-57 (L) (C(TGN)GLFGALLELLESLWKGLLEWYGRKKRRQRR; reading uncertain; also: disulfide-linked to TGN peptide via Cys; listed as Homo sapiens)	0.1	0	0.02	0.1	0.09
